Experimental data reported in patent US20240228469A1, “PCSK9 INHIBITORS AND METHODS OF USE THEREOF” (AstraZeneca AB, priority 2022, published 2024).

Experiments:
PCSK9 = PCSK9 (Homo sapiens, UniProt Q8NBP7, G670E/V474I); assay: biochemical
[1] = target: GSK3β (Glycogen synthase kinase-3 beta) (Homo sapiens, UniProt P49841); assay: Assay 6 GSK3β assay (ThermoFisher Z-Lyte FRET); assay type: biochemical; details: ATP Conc: 10 μM, geometric mean; read-out: Assay 6 (GSK3β FRET-Z-Lyte Cr) GMean IC50
Sequence of GSK3β (Glycogen synthase kinase-3 beta) (P49841 whole entry): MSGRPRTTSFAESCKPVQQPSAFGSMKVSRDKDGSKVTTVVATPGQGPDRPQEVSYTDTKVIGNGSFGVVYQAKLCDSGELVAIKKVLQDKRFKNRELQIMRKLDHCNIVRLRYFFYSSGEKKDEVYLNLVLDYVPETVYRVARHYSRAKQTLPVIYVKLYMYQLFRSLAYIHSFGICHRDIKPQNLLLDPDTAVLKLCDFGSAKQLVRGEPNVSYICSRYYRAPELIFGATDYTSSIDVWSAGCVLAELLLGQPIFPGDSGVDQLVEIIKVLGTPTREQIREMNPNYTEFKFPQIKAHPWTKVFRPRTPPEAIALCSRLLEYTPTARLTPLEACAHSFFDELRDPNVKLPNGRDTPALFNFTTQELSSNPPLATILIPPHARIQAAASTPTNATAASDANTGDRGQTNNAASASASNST
Protocol: This assay measures the activity of the compounds at GSK33 (Glycogen synthase kinase-3 beta).
The test compounds were screened in 1% DMSO (final) in the well. For 10 point titrations, 3-fold serial dilutions are conducted from the starting concentration of 10 PM.
Bar-coded Corning, low volume NBS, black 384-well plate • 1. 2.5 μL—4× Test Compound or 100 nL 100× plus 2.4 μL kinase buffer • 2. 5 μL—2× Peptide/Kinase Mixture • 3. 2.5 μL—4×ATP Solution • 4. 30-second plate shake • 5. 60-minute Kinase Reaction incubation at room temperature • 6. 5 μL—Development Reagent Solution • 7. 30-second plate shake • 8. 60-minute Development Reaction incubation at room temperature • 9. Read on fluorescence plate reader and analyse the data
In step 2, the 2×GSK3β (GSK3 beta)/Ser/Thr (Glycogen synthase kinase-3 beta/Serine/Threonine) 09 mixture is prepared in 50 mM HEPES (4-(2-hydroxyethyl)-1-piperazineethanesulfonic acid) pH 7.5, 0.01% BRIJ-35, 10 mM MgCl2, 1 mM EGTA (egtazic acid). The final 10 μL Kinase Reaction consists of 0.22-0.92 ng GSK3β (GSK3 beta) and 2 PM Ser/Thr 09 in 50 mM HEPES pH 7.5, 0.01% BRIJ-35, 10 mM MgCl2, 1 mM EGTA.
In step 3 the ATP Solution is diluted to a 4× working concentration in Kinase Buffer (50 mM HEPES pH 7.5, 0.01% BRIJ-35, 10 mM MgCl2, 1 mM EGTA).
In Step 6 the Development Reagent is diluted 1:512 in Development Buffer (10× Novel PKC Lipid Mix: 2 mg/mL Phosphatidyl Serine, 0.2 mg/mL DAG in 20 mM HEPES, pH 7.4, 0.3% CHAPS).
SelectScreen® Kinase Profiling Service uses XLfit from IDBS. The dose response curve is curve fit to model number 205 (sigmoidal dose-response model).

[2] = target: T1, potassium ion channel hERG (Homo sapiens, UniProt Q12809); assay: Assay 5 hERG assay (patch clamp, CHO cells over-expressing hERG); assay type: cell-based; details: SyncroPatch 384PE, room temperature, geometric mean, read-out: Assay 5 (hERG Hu CHO if EPh CR-Syncro) GMean IC50
T1 construct: expressed in transfected cells; host or cells: Chinese hamster ovary K1 (CHO)
T1 sequence (Q12809 whole entry): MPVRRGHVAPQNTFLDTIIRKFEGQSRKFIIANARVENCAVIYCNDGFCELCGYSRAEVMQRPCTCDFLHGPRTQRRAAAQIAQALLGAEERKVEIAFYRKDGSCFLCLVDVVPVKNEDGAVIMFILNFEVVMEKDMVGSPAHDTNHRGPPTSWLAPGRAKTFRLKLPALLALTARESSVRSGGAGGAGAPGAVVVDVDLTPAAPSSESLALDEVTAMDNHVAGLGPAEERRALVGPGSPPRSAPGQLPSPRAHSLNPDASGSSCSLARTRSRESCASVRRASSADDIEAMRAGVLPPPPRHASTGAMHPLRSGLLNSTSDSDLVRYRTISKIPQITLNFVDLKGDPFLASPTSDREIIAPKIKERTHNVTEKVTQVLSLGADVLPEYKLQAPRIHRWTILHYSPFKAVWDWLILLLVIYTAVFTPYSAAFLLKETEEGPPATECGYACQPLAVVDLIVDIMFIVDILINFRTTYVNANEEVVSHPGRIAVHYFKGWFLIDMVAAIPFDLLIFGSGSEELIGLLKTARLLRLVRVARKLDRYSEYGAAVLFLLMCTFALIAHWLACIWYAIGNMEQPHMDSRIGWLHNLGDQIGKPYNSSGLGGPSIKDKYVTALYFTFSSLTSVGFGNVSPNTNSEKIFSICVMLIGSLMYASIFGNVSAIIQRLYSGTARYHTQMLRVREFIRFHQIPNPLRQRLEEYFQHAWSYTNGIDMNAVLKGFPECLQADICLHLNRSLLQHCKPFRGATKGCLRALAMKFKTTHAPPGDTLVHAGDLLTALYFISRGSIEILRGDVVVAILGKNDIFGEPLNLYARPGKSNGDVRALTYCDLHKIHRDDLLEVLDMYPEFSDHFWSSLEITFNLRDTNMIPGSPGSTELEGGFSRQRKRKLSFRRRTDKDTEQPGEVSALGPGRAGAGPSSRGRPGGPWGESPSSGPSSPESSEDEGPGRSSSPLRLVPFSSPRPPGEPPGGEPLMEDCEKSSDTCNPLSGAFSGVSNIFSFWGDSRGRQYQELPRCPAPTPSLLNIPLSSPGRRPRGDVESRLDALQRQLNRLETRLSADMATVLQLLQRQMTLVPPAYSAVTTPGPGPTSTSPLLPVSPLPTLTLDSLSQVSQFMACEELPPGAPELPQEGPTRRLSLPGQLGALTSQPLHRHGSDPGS
Protocol: This assay (human Ether-d-go-go-Related Gene) measures activity of the compounds at the potassium ion channel hERG (human Ether-d-go-go-Related Gene).
Experiments were performed on the SyncroPatch 384PE high throughput patch clamp platform at room temperature and medium resistance chips with 4 patch holes per site. Chinese hamster ovary K1 (CHO) cell lines over-expressing the ion channel of choice (hERG) were used in assay-ready format and kept in liquid nitrogen or were used from live culture. Cells were either thawed and diluted in HBSS or were detached from flasks and resuspended in HBSS. HBSS comprised 140 mM NaCl, 4 mM KCl, 10 mM HEPES and 5 mM Glucose (pH7.4). The internal patch clamp solution was KF 120 mM, KCl 20 mM, HEPES 10 mM, EGTA 10 mM, and 25 PM Escin (pH 7.2). After the sealing process was complete, the external solution was exchanged for external patch clamp solution comprising NaCl 80 mM, KCl 4 mM, HEPES 10 mM, CaCl2 2 mM, MgCl2 1 mM, glucose 5 mM, and NMDG 60 mM (pH 7.4). All solutions were stored at room temperature, except Escin, which was stored at 4° C. All test compounds were dispensed in greiner-bio 384 well plates and tested in a 6 point cumulative assay (final DMSO concentration 0.33%). Only wells that passed previously agreed acceptance criteria for this platform were used in this analysis (30 MegaOhm seal resistance, Z prime >0.4 and current size >0.2 nA). […]

Sequence of PCSK9 (Q8NBP7 with tags, fused parts or gaps V474I/G670E): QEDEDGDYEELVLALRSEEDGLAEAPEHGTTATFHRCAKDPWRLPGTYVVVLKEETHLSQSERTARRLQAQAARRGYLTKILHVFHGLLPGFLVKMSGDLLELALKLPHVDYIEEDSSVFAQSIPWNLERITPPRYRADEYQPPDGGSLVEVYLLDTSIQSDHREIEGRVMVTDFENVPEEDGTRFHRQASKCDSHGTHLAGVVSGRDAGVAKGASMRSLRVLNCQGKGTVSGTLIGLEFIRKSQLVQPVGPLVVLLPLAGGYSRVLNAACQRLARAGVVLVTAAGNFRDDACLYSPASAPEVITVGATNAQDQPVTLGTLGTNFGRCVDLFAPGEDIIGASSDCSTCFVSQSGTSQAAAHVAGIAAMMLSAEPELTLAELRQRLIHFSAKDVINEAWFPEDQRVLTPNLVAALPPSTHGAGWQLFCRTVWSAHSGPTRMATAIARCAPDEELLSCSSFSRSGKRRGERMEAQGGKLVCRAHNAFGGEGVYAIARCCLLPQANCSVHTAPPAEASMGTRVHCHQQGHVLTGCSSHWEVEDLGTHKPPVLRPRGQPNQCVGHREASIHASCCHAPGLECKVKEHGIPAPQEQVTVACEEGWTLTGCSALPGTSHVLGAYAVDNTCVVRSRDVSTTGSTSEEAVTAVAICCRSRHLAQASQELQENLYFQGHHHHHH

SMILES	IC50 (PCSK9) [µM]	IC50 [1] [µM]	IC50 [2] [µM]
Cc1cnc(N[C@H]2CC[C@H](Nc3ccc(-n4cc5ccccc5n4)cn3)C2)nn1 [Example 312, (1S,3S)—N^1-(5-(2H-Indazol-2-yl)pyridin-2-yl)-N^3-(6-methyl-1,2,4-triazin-3-yl)cyclopentane-1,3-diamine]	0.037	> 10	4.2
O=c1ccccn1-c1ccc(N[C@H]2CC[C@H](Nc3ncc(-c4ccn[nH]4)nn3)C2)nc1 [Example 257, 6′-(((1S,3S)-3-((6-(1H-Pyrazol-5-yl)-1,2,4-triazin-3-yl)amino)cyclopentyl)amino)-2H-[1,3′-bipyridin]-2-one]	0.062	2.81	> 40.1
C#CCN(C)C(=O)c1cnc(N[C@H]2CC[C@H](Nc3ccc(-n4ccccc4=O)cn3)C2)nn1 [Example 152, N-Methyl-3-(((1S,3S)-3-((2-oxo-2H-[1,3′-bipyridin]-6′-yl)amino)cyclopentyl)amino)-N-(prop-2-yn-1-yl)-1,2,4-triazine-6-carboxamide]	0.244	> 10	> 40.1
Cc1cnc(N[C@H]2CC[C@H](Nc3ccc(-n4nccc(C#N)c4=O)cn3)C2)nn1 [Example 277, 2-(6-(((1S,3S)-3-((6-Methyl-1,2,4-triazin-3-yl)amino)cyclopentyl)amino)pyridin-3-yl)-3-oxo-2,3-dihydropyridazine-4-carbonitrile]	0.0049	9.56	> 40.1
COc1c(-c2nnn[nH]2)ccc(F)c1-c1ccc(N[C@H]2CC[C@H](Nc3ncc(C4CC4)nn3)C2)nc1 [Example 169, (1S,3S)—N^1-(6-Cyclopropyl-1,2,4-triazin-3-yl)-N^3-(5-(6-fluoro-2-methoxy-3-(1H-tetrazol-5-yl)phenyl)pyridin-2-yl)cyclopentane-1,3-diamine]	0.027	0.31	> 40.1
NC(=O)CNC(=O)c1cnc(N[C@H]2CC[C@H](Nc3ccc(-n4ccccc4=O)cn3)C2)nn1 [Example 68, N-(2-Amino-2-oxoethyl)-3-(((1S,3S)-3-((2-oxo-2H-[1,3′-bipyridin]-6′-yl)amino)cyclopentyl)amino)-1,2,4-triazine-6-carboxamide]	0.168	> 10	> 40
O=c1ccncn1-c1cnc(N[C@H]2CC[C@H](Nc3ncc(C4CC4)nn3)C2)nc1 [Example 120, 2′-(((1S,3S)-3-((6-Cyclopropyl-1,2,4-triazin-3-yl)amino)cyclopentyl)amino)-6H-[1,5′-bipyrimidin]-6-one]	0.143	> 10	> 40.1
Cc1cnc(N[C@H]2CC[C@H](Nc3ccc(-c4ccccc4C#N)cn3)C2)nn1 [Example 247, 2-(6-(((1S,3S)-3-((6-Methyl-1,2,4-triazin-3-yl)amino)cyclopentyl)amino)pyridin-3-yl)benzonitrile]	0.075	> 10	6.6
COc1ccccc1-c1ccc(N[C@H]2CC[C@H](Nc3ncc(C)nn3)C2)nc1 [Example 306, (1S,3S)—N′-(5-(2-Methoxyphenyl)pyridin-2-yl)-N^3-(6-methyl-1,2,4-triazin-3-yl)cyclopentane-1,3-diamine]	0.302	> 10	4.5
N#Cc1ccc(F)c(-c2ccc(N[C@H]3CC[C@H](Nc4ncc(C5CC5)nn4)C3)nc2)n1 [Example 61, 6′-(((1S,3S)-3-((6-Cyclopropyl-1,2,4-triazin-3-yl)amino)cyclopentyl)amino)-3-fluoro-[2,3′-bipyridine]-6-carbonitrile]	0.184	> 10	5.6
Cc1cnc(N[C@H]2CC[C@H](Nc3ccc(-c4nc(C)oc4C)cn3)C2)nn1 [Example 314, (1S,3S)—N^1-(5-(2,5-Dimethyloxazol-4-yl)pyridin-2-yl)-N^3-(6-methyl-1,2,4-triazin-3-yl)cyclopentane-1,3-diamine]	0.11	> 10	25.7
CN(CCO)C(=O)c1cnc(N[C@H]2CC[C@H](Nc3ccc(-n4ccccc4=O)cn3)C2)nn1 [Example 151, N-(2-Hydroxyethyl)-N-methyl-3-(((1S,3S)-3-((2-oxo-2H-[1,3′-bipyridin]-6′-yl)amino)cyclopentyl)amino)-1,2,4-triazine-6-carboxamide]	2.25	> 10	> 40.1
Cc1cnc(N[C@H]2CC[C@H](Nc3ccc(-n4c(C)nc(C)c4C#N)cn3)C2)nn1 [Example 250, 2,4-Dimethyl-1-(6-(((1S,3S)-3-((6-methyl-1,2,4-triazin-3-yl)amino)cyclopentyl)amino)pyridin-3-yl)-1H-imidazole-5-carbonitrile]	0.108	> 10	> 40.1
Cc1cnc(N[C@H]2CC[C@H](Nc3ccc(-n4nc(Cl)ccc4=O)cn3)C2)nn1 [Example 222]	0.0083	> 10	> 40.1
CCSc1cnc(N[C@H]2CC[C@H](Nc3ccc(-n4ccccc4=O)cn3)C2)nn1 [Example 258, 6′-(((1S,3S)-3-((6-(Ethylthio)-1,2,4-triazin-3-yl)amino)cyclopentyl)amino)-2H-[1,3′-bipyridin]-2-one]	0.015	0.237	26.1
O=c1cccnn1-c1cnc(N[C@H]2CC[C@H](Nc3ncc(C4CC4)nn3)C2)nc1 [Example 119, 2-(2-(((1S,3S)-3-((6-Cyclopropyl-1,2,4-triazin-3-yl)amino)cyclopentyl)amino)pyrimidin-5-yl)pyridazin-3(2H)-one]	0.073	> 10	> 40
Cc1cnc(N[C@H]2CC[C@H](Nc3ccc(-n4nc(C)nc4C)cn3)C2)nn1 [Example 313, (1S,3S)—N^1-(5-(3,5-dimethyl-1H-1,2,4-triazol-1-yl)pyridin-2-yl)-N^3-(6-methyl-1,2,4-triazin-3-yl)cyclopentane-1,3-diamine]	0.016	> 10	> 40.1
CC(=O)c1cnc(N[C@H]2CC[C@H](Nc3ccc(-n4ccccc4=O)cn3)C2)nn1 [Example 260, 6′-(((1S,3S)-3-((6-Acetyl-1,2,4-triazin-3-yl)amino)cyclopentyl)amino)-2H-[1,3′-bipyridin]-2-one]	0.101	1.32	> 40
Cc1cnc(N[C@H]2CC[C@H](Nc3ccc(-n4nc(C)cc4C)cn3)C2)nn1 [Example 249]	0.016	> 10	> 40.1
Cc1nnc(N[C@H]2CC[C@H](Nc3ccc(-n4ccccc4=O)cn3)C2)[nH]c1=O [Example 254, 6′-(((1S,3S)-3-((6-Methyl-5-oxo-4,5-dihydro-1,2,4-triazin-3-yl)amino)cyclopentyl)amino)-2H-[1,3′-bipyridin]-2-one]	0.33	6.14	> 40.1
COc1cccc(-c2ccc(N[C@H]3CC[C@H](Nc4ncc(C)nn4)C3)nc2)n1 [Example 305, (1S,3S)—N′-(6-Methoxy-[2,3′-bipyridin]-6′-yl)-N^3-(6-methyl-1,2,4-triazin-3-yl)cyclopentane-1,3-diamine]	0.091	> 10	3.2
